Measurements as given in patent US11447504B2, “Macrocyclic chlorine substituted indole derivatives” (Bayer Aktiengesellschaft, priority 2017, dated 2022).
Structures can show the parent of a compound that is named as a salt. Where two headings read alike, the source gives them in different places.

Legend:
MV-4-11 = assay: Antiproliferation assay 7, MV-4-11; assay type: cell-based; conditions: MV-4-11 cells, CellTiter-Glo, read-out: Antiproli MV-4-11 IC50 median
Summary of the method: (§1)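 Proliferation over 72 h at 37° C was assessed by luminescent cell viability reagent, referenced to a day 0 plate.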

AMO-1 = assay: Antiproliferation assay 7, AMO-1; assay type: cell-based; conditions: AMO-1 cells, CellTiter-Glo, read-out: Antiproli AMO-1 IC50 median
Summary of the method: as §1

SUDHL10 [1] = assay: Induction of caspase-3/7 activity (Assay 4), SUDHL10; assay type: cell-based; conditions: SUDHL10 cells
Summary of the method: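 Luminescent Caspase-Glo 3/7 read-out after a 3 h, 37 °C compound exposure of the DLBCL line SUDHL10. Values are background-corrected using medium-only wells.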

SUDHL10 [2] = assay: Induction of cytotoxicity (Assay 6), SUDHL10
SUDHL5 [3] = assay: Induction of cytotoxicity (Assay 6), SUDHL5
SUDHL5 [4] = assay: Induction of caspase-3/7 activity (Assay 4), SUDHL5; assay type: cell-based; conditions: SUDHL5 cells
Summary of the method: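 DLBCL cells treated with compounds for 3 hours at 37° C. Caspase-3/7 activity measured by Caspase-Glo 3/7 luminescence, with medium-only background subtracted.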

MCL-1 = MCL-1 (Homo sapiens (Human), UniProt Q07820, K194A/K197A/R201A); assay: Protein-protein interaction assay MCL-1/Noxa BH3 peptide (MCL-1 Assay, TR-FRET); assay type: binding; conditions: read-out: MCL-1 Assay IC50 (median)
MCL-1, sequence (Q07820 whole entry K194A/K197A/R201A, looked up, the tested form may be a part): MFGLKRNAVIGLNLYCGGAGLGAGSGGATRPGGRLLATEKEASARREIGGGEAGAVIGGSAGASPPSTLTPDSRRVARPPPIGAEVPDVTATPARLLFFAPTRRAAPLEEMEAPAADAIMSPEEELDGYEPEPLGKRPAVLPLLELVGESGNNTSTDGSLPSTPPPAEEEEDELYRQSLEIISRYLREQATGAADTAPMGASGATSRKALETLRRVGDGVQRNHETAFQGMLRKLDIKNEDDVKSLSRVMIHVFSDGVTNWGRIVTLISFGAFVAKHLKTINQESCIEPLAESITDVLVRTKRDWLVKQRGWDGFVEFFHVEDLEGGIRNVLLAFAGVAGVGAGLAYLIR
Procedure: The dose-dependent inhibition by the compounds described in this invention of the interaction between MCL-1 and the BH3 domain of Noxa (both human) was determined using a steady state binding competition assay with time-resolved fluorescence energy transfer (TR-FRET) readout. […] The MBP-MCL-1 was purchased from Beryllium (Bedford, Mass., USA). The expression and purification of this protein construct has been described elsewhere (DOI:10.1371/journal.pone.0125010). The Noxa BH3-derived peptide can be obtained from e.g. Biosyntan (Berlin, Germany).
For that, 100-fold concentrated DMSO solutions were prepared by serial dilutions (1:3.4) of a 2 mM stock solution in a clear, 384-well microtiter plate (Greiner Bio-One, Frickenhausen, Germany). From there, 50 nl were transferred in a dark test plate (Greiner Bio-One, Frickenhausen, Germany). […] This was followed by a 10-minute incubation step at 22° C. for pre-equilibration of the putative complex between MBP-MCL-1 and the compounds.
The mixture was incubated in the dark for one hour at 22° C. and then overnight at 4° C.
The resulting data (ratio) were normalized, taking 0% inhibition as the mean value of control measurements (usually 32 data points) where all reagents were included. In this case 50 nl DMSO were used instead of compounds. […] IC50 values were determined by regression analysis based on a 4 parameter equation (minimum, maximum, IC50, Hill; Y=Max+(Min−Max)/(1+(X/IC50)^Hill) using the Screener Software (Genedata).

SUDHL5 [5] = assay: Antiproliferation assay 7, SUDHL5; assay type: cell-based; conditions: SUDHL5 cells, CellTiter-Glo, read-out: Antiproli SUDHL5 IC50 (median)
Summary of the method: as §1

HMC-1-8 = assay: Antiproliferation assay 7, HMC-1-8; assay type: cell-based; conditions: HMC-1-8 cells, CellTiter-Glo, read-out: Antiproli HMC-1-8 IC50 median
Summary of the method: as §1

[6] = Homo sapiens, SU-DHL10, 3 h, Caspase-Glo 3/7, read-out: Caspase SUDHL10 EC50 (median)
[7] = Homo sapiens, SU-DHL10, 5 h, read-out: Cytotox SUDHL10 IC50 (median), SUDHL10 cells, 5 hours, CellTiter-Glo
[8] = Homo sapiens, SU-DHL-5, 5 h, read-out: Cytotox SUDHL5 IC50 (median), SUDHL5 cells, 5 hours, CellTiter-Glo
[9] = Homo sapiens, SU-DHL-5, 3 h, Caspase-Glo 3/7, read-out: Caspase SUDHL5 EC50 (median)
[10] = 3 hours, Caspase-Glo 3/7, read-out: Caspase SUDHL10 EC50 (median)
[11] = read-out: Cytotox SUDHL10 IC50 (median), SUDHL10 cells, 5 hours, CellTiter-Glo
[12] = read-out: Cytotox SUDHL5 IC50 (median), SUDHL5 cells, 5 hours, CellTiter-Glo
[13] = 3 hours, Caspase-Glo 3/7, read-out: Caspase SUDHL5 EC50 (median)

Row | SMILES | IC50 (MV-4-11; Homo sapiens, MV4-11, 72 h) | IC50 (AMO-1; Homo sapiens, AMO1, 72 h) | EC50 (SUDHL10 [1]; [6]) | IC50 (SUDHL10 [2]; [7]) | IC50 (SUDHL5 [3]; [8]) | EC50 (SUDHL5 [4]; [9]) | IC50 (MCL-1) | IC50 (SUDHL5 [5]; Homo sapiens, SU-DHL-5, 72 h) | IC50 (HMC-1-8; 72 h) | IC50 (MV-4-11; 72 hours) | IC50 (AMO-1; 72 hours) | EC50 (SUDHL10 [1]; [10]) | IC50 (SUDHL10 [2]; [11]) | IC50 (SUDHL5 [3]; [12]) | EC50 (SUDHL5 [4]; [13]) | IC50 (SUDHL5 [5]; 72 hours) | IC50 (HMC-1-8; 72 hours)
1 | Cc1c2c(nn1CCCN1CCN(C)CC1)COCCCCn1c(C(=O)O)c(CCCOc3cccc4ccccc34)c3ccc(Cl)c-2c31 (racemic) [Example 48, (rac)-4-chloro-3-methyl-2-[3-(4-methylpiperazin-1-yl)propyl]-7-{3-[(naphthalen-1-yl)oxy]propyl}-2,10,11,12,13,15-hexahydropyrazolo[4′,3′:9,10][1,6]oxazacycloundecino[8,7,6-hi]indole-8-carboxylic Acid] | 918 nM | 1490 nM | 590 nM | 1000 nM | 590 nM | 590 nM | 1.7 nM | 570 nM |  |  |  |  |  |  |  |  | 
2 | CCc1c2c(nn1C)N(CCC1CCOCC1)CCCCCn1c(C(=O)O)c(CCCOc3cccc4cc(F)ccc34)c3ccc(Cl)c-2c31 (racemic) [Example 80, (rac)-4-chloro-3-ethyl-7-{3-[(6-fluoronaphthalen-1-yl)oxy]propyl}-2-methyl-15-[2-(oxan-4-yl)ethyl]-10,11,12,13,14,15-hexahydro-2H-pyrazolo[4′,3′:4,5][1,6]diazacycloundecino[3,2,1-hi]indole-8-carboxylic Acid] |  | 270 nM | 600 nM | 530 nM | 500 nM | 400 nM | 2 nM | 410 nM | 4000 nM |  |  |  |  |  |  |  | 
3 | CCc1nn(C)c2c1-c1c(Cl)ccc3c(CCCOc4cccc5cc(F)ccc45)c(C(=O)O)n(c13)CCCCN(C)C2 (single isomer, unassigned; enantiomer 1) [Example 40, 4-chloro-3-ethyl-7-{3-[(6-fluoronaphthalen-1-yl)oxy]propyl}-1,14-dimethyl-10,11,12,13,14,15-hexahydro-1H-pyrazolo[3′,4′:8,9][1,6]diazacycloundecino[10,11,1-hi]indole-8-carboxylic Acid (Enantiomer 1)] |  |  |  |  |  |  |  |  | 695 nM | 95.5 nM | 539 nM | 310 nM | 290 nM | 110 nM | 140 nM | 150 nM | 
4 | CCc1nn(CCN2CCOCC2)c2c1-c1c(Cl)ccc3c(CCCOc4cccc5ccccc45)c(C(=O)O)n(c13)C/C=C\CN(C)C2 (single isomer, unassigned; enantiomer 1) [Example 43, (11Z)-4-chloro-3-ethyl-14-methyl-1-[2-(morpholin-4-yl)ethyl]-7-{3-[(naphthalen-1-yl)oxy]propyl}-10,13,14,15-tetrahydro-1H-pyrazolo[3′,4′:8,9][1,6]diazacycloundecino[10,11,1-hi]indole-8-carboxylic Acid-Ammonia Salt (Enantiomer 1)] |  |  |  |  |  |  |  |  | 2060 nM | 1380 nM | 1130 nM | 1600 nM | 1200 nM | 700 nM | 620 nM | 950 nM | 
5 | CCc1nn(CCN2CCOCC2)c2c1-c1c(Cl)ccc3c(CCCOc4cccc5ccccc45)c(C(=O)O)n(c13)CCCCN(C)C2 (single isomer, unassigned; enantiomer 1) [Example 46, 4-chloro-3-ethyl-14-methyl-1-[2-(morpholin-4-yl)ethyl]-7-{3-[(naphthalen-1-yl)oxy]propyl}-10,11,12,13,14,15-hexahydro-1H-pyrazolo[3′,4′:8,9][1,6]diazacycloundecino[10,11,1-hi]indole-8-carboxylic Acid (Enantiomer 1)] |  |  |  |  |  |  |  |  | 819 nM | 490 nM | 180 nM | 400 nM | 300 nM | 180 nM | 160 nM | 200 nM | 
6 | Cc1c2c(nn1C)OCCCCCn1c(C(=O)O)c(CCCOc3cccc4cc(F)ccc34)c3ccc(Cl)c-2c31 (single isomer, unassigned; enantiomer 1) [Example 84, 4-chloro-7-{3-[(6-fluoronaphthalen-1-yl)oxy]propyl}-2,3-dimethyl-11,12,13,14-tetrahydro-2H,10H-pyrazolo[3′,4′:2,3][1,6]oxazacycloundecino[4,5,6-hi]indole-8-carboxylic Acid—Enantiomer 1] |  | 230 nM | 1300 nM | 1500 nM | 1100 nM | 1000 nM | 1.9 nM | 1300 nM | 12000 nM |  |  |  |  |  |  |  | 
7 | Cc1c2c(nn1C)CN(C)CCCCn1c(C(=O)O)c(CCCOc3cccc4cc(F)ccc34)c3ccc(Cl)c-2c31 (single isomer, unassigned; enantiomer 2) [Example 32, (−)-4-chloro-7-{3-[(6-fluoronaphthalen-1-yl)oxy]propyl}-2,3,14-trimethyl-10,11,12,13,14,15-hexahydro-2H-pyrazolo[3′,4′:8,9][1,6]diazacycloundecino[10,11,1-hi]indole-8-carboxylic acid-N-ethylethanamine Salt (Enantiomer 2)] |  |  |  |  |  |  | 26 nM |  |  | 14000 nM | 19600 nM | 25000 nM | 14000 nM | 9300 nM | 11000 nM | 6000 nM | 
8 | Cc1c2c(nn1CCCN1CCN(C)CC1)COCCCCn1c(C(=O)O)c(CCCOc3cccc4ccccc34)c3ccc(Cl)c-2c31 (single isomer, unassigned; enantiomer 2) [Example 50, (−)-4-chloro-3-methyl-2-[3-(4-methylpiperazin-1-yl)propyl]-7-{3-[(naphthalen-1-yl)oxy]propyl}-2,10,11,12,13,15-hexahydropyrazolo[4′,3′:9,10][1,6]oxazacycloundecino[8,7,6-hi]indole-8-carboxylic Acid (Enantiomer 2)] |  |  |  |  |  |  | 15 nM |  |  |  | 13300 nM | 12000 nM | 8600 nM | 8400 nM | 13000 nM | 6700 nM | 12400 nM
9 | Cc1c2c(nn1C)COCC1CC1Cn1c(C(=O)O)c(CCCOc3cccc4ccccc34)c3ccc(Cl)c-2c31 (single isomer, unassigned; stereoisomer 2) [Example 66, (9aR,10aS or 9aS, 10aR)-3-chloro-4,5-dimethyl-14-{3-[(naphthalen-1-yl)oxy]propyl}-5,7,9a, 10,10a, 11-hexahydro-9H-cyclopropa[3,4]pyrazolo[4′,3′:9,10][1,6]oxazacycloundecino-[8,7,6-hi]indole-13-carboxylic Acid—Stereoisomer 2] |  |  |  |  |  |  | 1.7 nM |  |  |  | 1520 nM | 3500 nM | 1400 nM | 910 nM | 550 nM |  | 
